Reference: patent US20220242870A1, “HETEROCYCLE-FUSED PYRIMIDINE DERIVATIVE AND USE THEREOF” (VORONOI Inc., priority 2019, published 2022)

Tests used:
human FLT3-ITD enzyme = molecular target: T1, human FLT3-ITD enzyme (Homo sapiens, UniProt P36888); experiment: FLT3 enzyme inhibitory ability (ADP-Glo kinase assay); type: biochemical; conditions: human FLT3-ITD enzyme 10 ng, ATP 10 μM, 25° C. 1 hour
T1 sequence (P36888 1-993): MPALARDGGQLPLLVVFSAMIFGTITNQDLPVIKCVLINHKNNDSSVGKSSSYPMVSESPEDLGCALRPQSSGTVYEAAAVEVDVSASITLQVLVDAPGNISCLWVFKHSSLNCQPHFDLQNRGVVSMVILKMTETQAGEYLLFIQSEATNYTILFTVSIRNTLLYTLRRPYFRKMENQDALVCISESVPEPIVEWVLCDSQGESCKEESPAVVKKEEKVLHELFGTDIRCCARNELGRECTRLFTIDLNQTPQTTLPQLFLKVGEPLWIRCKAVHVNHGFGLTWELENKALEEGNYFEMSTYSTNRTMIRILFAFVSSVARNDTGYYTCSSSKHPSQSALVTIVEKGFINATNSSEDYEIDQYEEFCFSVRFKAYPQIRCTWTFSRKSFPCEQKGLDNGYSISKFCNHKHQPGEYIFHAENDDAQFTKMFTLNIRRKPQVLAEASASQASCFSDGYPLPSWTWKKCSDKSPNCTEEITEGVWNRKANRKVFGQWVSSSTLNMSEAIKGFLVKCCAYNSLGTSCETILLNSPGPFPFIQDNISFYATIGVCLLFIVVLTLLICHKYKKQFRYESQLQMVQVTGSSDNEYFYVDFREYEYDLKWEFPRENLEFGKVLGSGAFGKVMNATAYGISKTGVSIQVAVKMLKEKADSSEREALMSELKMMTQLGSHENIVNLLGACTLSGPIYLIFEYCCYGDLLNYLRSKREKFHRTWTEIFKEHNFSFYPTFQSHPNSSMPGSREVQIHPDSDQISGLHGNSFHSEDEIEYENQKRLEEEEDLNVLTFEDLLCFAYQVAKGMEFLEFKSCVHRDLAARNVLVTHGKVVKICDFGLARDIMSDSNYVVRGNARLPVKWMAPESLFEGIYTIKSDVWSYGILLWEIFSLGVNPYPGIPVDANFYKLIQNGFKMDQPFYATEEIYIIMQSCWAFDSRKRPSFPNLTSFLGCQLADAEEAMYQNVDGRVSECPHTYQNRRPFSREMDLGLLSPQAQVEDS
How it was run: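 Purified human FLT3-ITD (10 ng) with 10 μM ATP and specific substrate in 40 mM Tris-HCl pH 7.4, 20 mM MgCl2, 0.5 mg/mL BSA, 50 μM DTT, 1 h at 25 °C. ADP formation read by ADP-Glo luminescence; IC50 (nM) versus solvent-treated control.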

human GST-HPK1 (1-346) = molecular target: T2, human GST-HPK1 (1-346) (Homo sapiens, UniProt Q92918); experiment: HPK1 enzyme inhibitory ability (ADP-Glo kinase assay); type: biochemical; conditions: human GST-HPK1 3 ng, ATP 3 uM, 25° C. 2 hours
T2 construct: purified human GST-HPK1 (1-346, Signalchem) enzyme; purchased Signalchem
T2 sequence (Q92918 1-346): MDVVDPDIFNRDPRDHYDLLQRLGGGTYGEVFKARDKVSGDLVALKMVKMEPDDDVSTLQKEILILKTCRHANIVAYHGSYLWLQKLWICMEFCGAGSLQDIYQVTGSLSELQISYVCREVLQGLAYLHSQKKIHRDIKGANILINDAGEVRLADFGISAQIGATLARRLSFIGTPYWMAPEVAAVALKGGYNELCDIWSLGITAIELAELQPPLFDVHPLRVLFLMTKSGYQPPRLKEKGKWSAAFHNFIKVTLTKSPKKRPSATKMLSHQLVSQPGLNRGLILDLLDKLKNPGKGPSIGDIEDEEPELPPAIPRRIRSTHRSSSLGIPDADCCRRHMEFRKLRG
How it was run: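 Human GST-HPK1(1-346), 3 ng, reacted with 3 uM ATP and specific substrate in 40 mM Tris-HCl pH 7.4, 20 mM MgCl2, 0.5 mg/mL BSA, 50 uM DTT for 2 h at 25° C. ADP-Glo luminescence read; IC50 (nM) relative to untreated solvent control.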

MV4-11 cells = experiment: AML cell proliferation inhibitory activity (CellTiter-Glo); type: cell-based; conditions: Homo sapiens, 72 hours
How it was run: (§1)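 RS4;11 and MV4-11 cells in RPMI-1640 with 10% FBS, seeded 24 h before treatment, then exposed 72 h to 12 three-fold dilutions (0.3 nM–50 μM final). Viability by CellTiter-Glo luminescence relative to solvent control; GI50 from triplicate experiments.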

RS4;11 cells = experiment: as above; type: cell-based; conditions: Homo sapiens, 72 hours
How it was run: as §1

MCF-7 cells = experiment: Breast cancer cell line proliferation inhibitory activity (CellTiter-Glo 2.0); type: cell-based; conditions: Homo sapiens, MCF7, 120 hours
How it was run: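 MCF-7 cells exposed to a 12-point, 3-fold dilution series (final 0.00005–10 μM) for 120 h at 37 °C. Viability read by CellTiter-Glo 2.0 luminescence, expressed as percent of vehicle-treated cells. GI50 (nM) derived from the curves.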

SMILES	IC50 (human FLT3-ITD enzyme) [nM]	IC50 (human GST-HPK1 (1-346)) [nM]	GI50 (MV4-11 cells) [nM]	GI50 (RS4;11 cells) [nM]	GI50 (MCF-7 cells) [nM]
CN1CCN(c2ccc(Nc3nc(N4N=CCC4c4ccccc4)c4sccc4n3)cn2)CC1 (centres unmarked) [Example 5, N-(6-(4-methylpiperazin-1-yl)pyridin-3-yl)-4-(5-phenyl-4,5-dihydro-1H-pyrazol-1-yl)thieno[3,2-d]pyrimidin-2-amine]	> 500	> 500	> 500	> 500	> 500
C1=NN(c2nc(Nc3cnn(C4CCNCC4)c3)nc3ccsc23)C(c2ccccc2)C1 (centres unmarked) [Example 28, 4-(5-phenyl-4,5-dihydro-1H-pyrazol-1-yl)-N-(1-(piperidin-4-yl)-1H-pyrazol-4-yl)thieno[3,2-d]pyrimidin-2-amine]	≥ 250	> 500	≥ 250	> 500	> 500
C[C@@H]1CN(Cc2cc(Nc3nc(N4N=CCC4c4ccccc4)c4sccc4n3)cc(C3CC3)c2)C[C@H](C)N1 (stereo partly drawn) [Example 12, N-(3-cyclopropyl-5-(((3R,5S)-3,5-dimethylpiperazin-1-yl)methyl)phenyl)-4-(5-phenyl-4,5-dihydro-1H-pyrazol-1-yl)thieno[3,2-d]pyrimidin-2-amine]	> 500	> 500	250 to 500	> 500	> 500
CN1CCC(n2cc(Nc3nc(N4N=CCC4c4ccccc4)c4sccc4n3)cn2)CC1 (centres unmarked) [Example 29, N-(1-(1-methylpiperidin-4-yl)-1H-pyrazol-4-yl)-4-(5-phenyl-4,5-dihydro-1H-pyrazol-1-yl)thieno[3,2-d]pyrimidin-2-amine]	> 500	> 500	250 to 500	> 500	> 500
CN(C)C1CCN(c2ccc(Nc3nc(N4N=CCC4c4ccccc4)c4sccc4n3)cc2)CC1 (centres unmarked) [Example 38, N-(4-(4-(dimethylamino)piperidin-1-yl)phenyl)-4-(5-phenyl-4,5-dihydro-1H-pyrazol-1-yl)thieno[3,2-d]pyrimidin-2-amine]	≥ 250	> 500	≥ 250	> 500	> 500
CN1CCN(C2CCN(c3ccc(Nc4nc(N5N=CCC5c5ccccc5)c5sccc5n4)cc3)CC2)CC1 (centres unmarked) [Example 7, N-(4-(4-(4-methylpiperazin-1-yl)piperidin-1-yl)phenyl)-4-(5-phenyl-4,5-dihydro-1H-pyrazol-1-yl)thieno[3,2-d]pyrimidin-2-amine]	≥ 250	> 500	250 to 500	> 500	> 500
CN1CCN(c2ccc(Nc3nc(N4N=CCC4c4ccc5ccccc5c4)c4sccc4n3)cc2)CC1 (centres unmarked) [Example 31, N-(4-(4-methylpiperazin-1-yl)phenyl)-4-(5-(naphthalen-2-yl)-4,5-dihydro-1H-pyrazol-1-yl)thieno[3,2-d]pyrimidin-2-amine]	> 500	> 500	> 500	> 500	> 500
CN(C)CCCn1cc(Nc2nc(N3N=CCC3c3ccccc3)c3sccc3n2)cn1 (centres unmarked) [Example 26, N-(1-(3-(dimethylamino)propyl)-1H-pyrazol-4-yl)-4-(5-phenyl-4,5-dihydro-1H-pyrazol-1-yl)thieno[3,2-d]pyrimidin-2-amine]	> 500	> 500	> 500	> 500	> 500
CN(C)[C@H]1CCN(c2ccc(Nc3nc(N4N=CCC4c4ccccc4)c4sccc4n3)cc2)C1 (stereo partly drawn) [Example 44, N-(4-((S)-3-(dimethylamino)pyrrolidin-1-yl)phenyl)-4-(5-phenyl-4,5-dihydro-1H-pyrazol-1-yl)thieno[3,2-d]pyrimidin-2-amine]	> 500	> 500	≥ 250	> 500	> 500
CN1Cc2cc(Nc3nc(N4N=CCC4c4ccccc4)c4sccc4n3)ccc2C1=O (centres unmarked) [Example 25, 2-methyl-5-((4-(5-phenyl-4,5-dihydro-1H-pyrazol-1-yl)thieno[3,2-d]pyrimidin-2-yl)amino)isoindolin-1-one]	> 500	> 500	250 to 500	> 500	> 500
CN1CCN(C2CCN(c3ccc(Nc4nc(N5OCC[C@H]5c5ccccc5)c5cc[nH]c5n4)cc3)CC2)CC1 [Example 84, (S)-N-(4-(4-(4-methylpiperazin-1-yl)piperidin-1-yl)phenyl)-4-(3-phenylisoxazolidin-2-yl)-7H-pyrrolo[2,3-d]pyrimidin-2-amine]	≥ 250	≥ 250	≥ 250	≥ 250	> 500
CN1CCN(C(=O)c2ccc(Nc3nc(N4N=CCC4c4ccccc4)c4sccc4n3)cc2)CC1 (centres unmarked) [Example 11, (4-methylpiperazin-1-yl)(4-((4-(5-phenyl-4,5-dihydro-1H-pyrazol-1-yl)thieno[3,2-d]pyrimidin-2-yl)amino)phenyl)methanone]	> 500	> 500	> 500	> 500	> 500
CN1CCC(Oc2ccc(Nc3nc(N4N=CCC4c4ccccc4)c4sccc4n3)cc2)CC1 (centres unmarked) [Example 13, N-(4-((1-methylpiperidin-4-yl)oxy)phenyl)-4-(5-phenyl-4,5-dihydro-1H-pyrazol-1-yl)thieno[3,2-d]pyrimidin-2-amine]	> 500	> 500	250 to 500	> 500	> 500
CN1CCC(NC(=O)c2ccc(Nc3nc(N4N=CCC4c4ccccc4)c4sccc4n3)cc2)CC1 (centres unmarked) [Example 19, N-(1-methylpiperidin-4-yl)-4-((4-(5-phenyl-4,5-dihydro-1H-pyrazol-1-yl)thieno[3,2-d]pyrimidin-2-yl)amino)benzamide]	≥ 250	> 500	≥ 250	> 500	> 500
CCN1CCN(c2ccc(Nc3nc(N4OCC[C@H]4c4ccccc4)c4cc[nH]c4n3)cc2)CC1 [Example 79, (S)-N-(4-(4-ethylpiperazin-1-yl)phenyl)-4-(3-phenylisoxazolidin-2-yl)-7H-pyrrolo[2,3-d]pyrimidin-2-amine]	250 to 500	≥ 250	≥ 250	> 500	> 500
CN(C)[C@@H]1CCN(c2ccc(Nc3nc(N4N=CCC4c4ccccc4)c4sccc4n3)cc2)C1 (stereo partly drawn) [Example 43, N-(4-((R)-3-(dimethylamino)pyrrolidin-1-yl)phenyl)-4-(5-phenyl-4,5-dihydro-1H-pyrazol-1-yl)thieno[3,2-d]pyrimidin-2-amine]	250 to 500	> 500	≥ 250	> 500	> 500
